Results: patent US4975437A, “Isomers of 1-azabicyclo(2.2.2)oct-3-yl 1,4-dihydro-2,6-dimethyl-4-(3-nitrophenyl)-5-nitropyridine-3-carboxylate” (Marion Laboratories, Inc., priority 1989, dated 1990)
Counter-ions that a name gives are not always drawn. Like-named read-outs stand apart in the source and are kept apart here.

How the values were obtained:
[1] = tested on: radioactive calcium uptake; settings: cited from earlier work
rabbit aortic rings = settings: cited from earlier work
[2] = tested on: smooth muscle (longitudinal muscle of ileum); test: Enhancement of Calcium Ion Evoked Smooth Muscle Contractility (isolated ileum longitudinal muscle); settings: guinea pig ileum; for Concentration at Maximum Enhancement: concentration of compound that produced the maximum enhancement; for Maximum Enhancement (% maximum contraction): 6 min; for minimal effective concentration: lowest concentration that produced enhancement of calcium evoked contraction, 37° C, read-out: Threshold for Enhancement
Text: This test is a measure of the ability of test compounds to enhance muscle contraction caused by calcium ions. A sample of muscle was placed under tension in a device to measure its length and contracted by addition of potassium chloride (to activate the calcium channels) followed by addition of a calcium ion solution. The addition of a calcium agonist should cause the influx of additional calcium ions and thereby cause further contraction of the muscle. The lowest concentration of test compound necessary to evoke this additional contraction was measured, as were the maximum contraction obtained and the concentration at which it was reached
The ileum of male albino guinea pigs were cut into 3-4 cm segments. The longitudinal muscle, with myenteric plexus attached, was separated from the circular muscle. […] Each preparation was suspended under resting tension of 0.3 g. The tissues were switched to calcium free Tryodes solution for 24 minutes. with complete replacement of the solution every four minutes. Potassium chloride was then added to produce a bath concentration of […], and calcium solutions were cumulatively added to increase the bath calcium ion concentration to 0.2-8.0 mM. The tissues were re-equilibrated in normal Tyrodes and then calcium free Tyrodes. Enhancement of calcium evoked contractions in the presence of drug were determined by repeating the cumulative addition procedure after the tissues were exposed to the drug for six minutes. Responses were expressed relative to the maximum contraction elicited by calcium ion in the absence of the drug.

[3] = tested on: voltage sensitive calcium channels; test: Potentiation of Calcium Influx across the Membrane (Quin 2 fluorescence); type: cell-based, murine; settings: NG108-15 (NGI08-15 [sic]) cells, KCl 50 mM depolarization, 37° C, percent enhancement over potassium chloride stimulation
Method: This test system was developed to evaluate the relative ability of compounds to potentiate calcium influx into cells via voltage sensitive calcium channels. The technique employs a high calcium affinity fluorescent dye to monitor changes in intracellular free calcium concentrations. The cells are incubated with a protected non-fluorescent form of the calcium sensitive dye. This compound permeates the cell wall and enters the cell. There it is transformed by enzymes into the fluorescent dye Quin 2 which cannot leave the cell Quin 2 has a high affinity for calcium ions and when calcium is bound to the dye, the complex fluoresces, the intensity of the fluorescence being proportional to the concentration of calcium ions. Voltage sensitive calcium channels are activated by the addition of potassium chloride to the media and calcium ion influx occurs. The increase in fluorescence is measured, giving a relative measure of calcium influx, the control value. In a separate cuvette, both potassium chloride and the test compound are administered to the cells and the fluorescence measured. A calcium agonist should increase influx of calcium into the cells and therefore an increase in the fluorescence. The percent stimulation above control is obtained from the increase in fluorescence.
Differentiated murine neuronal (neuroblastoma x glioma) hybrid cells (NGI08-15) which contain an abundance of voltage dependant calcium channels were used as a source of tissue for testing these compounds.
Briefly, NGI08-15 cells were cultured in 10% CO2 at 37° C. in Dulbecco's modified Eagle's medium (DMEM) supplemented with glutamine (1.0 mM). fetal bovine serum (FBS; 10%). and hypoxanthine (100 μM), aminopterin (1.0 μM). and thymidine (20 μM). Differentiation was induced by treatment with dibutyl cyclic AMP (4 days, 1.0 mM) [L. Noronha-Blob, C. […] Dispersed cells (5×10^6 cells/mL) were incubated with quin 2 acetoxymethyl ester (quin 2-AM, the calcium specific dye) [100 μM. in dimethyl sulfoxide (DMSO)] for 60 minutes at 37° C. The control suspensions received only DMSO. Cells were then diluted in ice-cold media, centrifuged and washed twice (1,500×g, 3 minutes) in ice-cold HEPES buffer (composition: 130 mM NaCl, 5.0 mM KCl, 6.0 mM glucose, 1.0 mM MgCl2, 1.0 mM CaCl2, and 20 mM HEPES, pH 7 4).
The change in fluorescence was calculated from the difference between final and initial values. The results were expressed as a percent enhancement over potassium chloride stimulation (control).

[4] = in words; cited from earlier work
[5] = tested on: extracellular calcium ions; settings: in words, dose-dependent; cited from earlier work
[6] = tested on: isolated guinea pig atrium; settings: cited from earlier work
[7] = tested on: isolated rabbit aortic strips; settings: cited from earlier work
[8] = increase above control as percent of maximum control calcium evoked contraction, 6 min drug exposure

Compound	Concentration at Maximum Enhancement [2]	Maximum Enhancement (% maximum contraction) [2, 8]	minimal effective concentration ([2]; 6 min drug exposure)	% Stimulation Above Control [3]	also measured
CC1=C(C(=O)OC(C)C)C(c2cccc3nonc23)C([N+](=O)[O-])=C(C)N1 (racemic) [Example 202-792, 2-propyl 4-(4-benzofurazanyl)-1,4-dihydro-2,6-dimethyl-5-nitropyridine-3-carboxylate]					radioactive calcium uptake ([1]; high levels of depolarization): inhibited contraction and radioactive calcium uptake at high levels of depolarization; contraction of aortic rings (rabbit aortic rings; high levels of depolarization): inhibited contraction; contraction of aortic rings (rabbit aortic rings; low levels of depolarization): enhanced contractions of rabbit aortic rings at low levels of depolarization
CC1=C(C(=O)OC2CN3CCC2CC3)C(c2cccc([N+](=O)[O-])c2)C([N+](=O)[O-])=C(C)N1 (single isomer, unassigned) [(+a, +b), (+a, +b)-1-Azabicyclo[2.2.2]oct-3-yl 1,4-Dihydro-2,6-dimethyl-4-(3-nitrophenyl)-5-nitropyridine-3-carboxylate fumarate]	100 nM	11%	10 nM	20%	
CC1=C(C(=O)OC2CN3CCC2CC3)C(c2cccc([N+](=O)[O-])c2)C([N+](=O)[O-])=C(C)N1 (single isomer, unassigned) [(+a, -b), (+a, -b)-1-Azabicyclo[2.2.2]oct-3-yl 1,4-Dihydro-2,6-dimethyl-4-(3-nitrophenyl)-5-nitropyridine-3-carboxylate fumarate]	10 nM	15%	10 nM	31%	
CC1=C(C(=O)OC2CN3CCC2CC3)C(c2cccc([N+](=O)[O-])c2)C([N+](=O)[O-])=C(C)N1 (single isomer, unassigned) [(-a, +b), (-a, +b)-1-Azabicyclo[2.2.2]oct-yl 1.4-Dihydro-2,6-dimethyl-4-(3-nitrophenyl)-5-nitropyridine-3-carboxylate fumarate]	1000 nM	13%	100 nM	25%	
CC1=C(C(=O)OC2CN3CCC2CC3)C(c2cccc([N+](=O)[O-])c2)C([N+](=O)[O-])=C(C)N1 (single isomer, unassigned) [(-a, -b), (-a, -b)-1-Azabicyclo[2.2.2]oct-3-yl 1,4-Dihydro-2,6-dimethyl-4-(3-nitrophenyl)-5-nitropyridine-3-carboxylate fumarate]	10 nM	18%	10 nM	10%	
COC(=O)C1=C(C)NC(C)=C([N+](=O)[O-])C1c1ccccc1C(F)(F)F (centres unmarked) [BAY K 8644, Methyl 1,4-dihydro-2,6-dimethyl-5-nitro-4-(2-trifluoromethylphenyl)-3-pyridine carboxylate]	100 nM			38%	Emax ([2]; Cavia porcellus, 0.1 h, increase above control as percent of maximum control calcium evoked contraction, 6 min drug exposure): 38%; minimal effective concentration ([2]; Cavia porcellus, 0.1 h, 6 min drug exposure): 10 nM; inotropic effect [4]: potent positive inotropic effects
CCOC(=O)C1=C(C)NC2=C(C(=O)OC2)C1c1ccccc1OC(F)F (centres unmarked) [CGP 28392, ethyl 4-[2-(difluoromethoxy)phenyl]-1,4,5,7-tetrahydro-2-methyl-5-oxofuro[3,4-b]pyridine-3-carboxylate]					concentration of extracellular calcium ions [5]: increase in a dose-dependent manner the concentration of extracellular calcium ions
CC1=C(C(=O)OC(C)C)[C@@H](c2cccc3nonc23)C([N+](=O)[O-])=C(C)N1 [R enantiomer]					radioactive calcium uptake ([1]; single enantiomer, in words): inhibited contraction and radioactive calcium uptake; contraction (rabbit aortic rings; single enantiomer, in words): inhibited contraction; stimulant activity (rabbit aortic rings; single enantiomer, in words): no stimulant activity
CC1=C(C(=O)OC(C)C)[C@H](c2cccc3nonc23)C([N+](=O)[O-])=C(C)N1 [S enantiomer]					radioactive calcium uptake ([1]; single enantiomer, in words): enhanced radioactive calcium uptake dependently at all levels of depolarization; concentration-response curve for depolarization-induced contraction (rabbit aortic rings; single enantiomer, in words): shifted the concentration-response curve for depolarization-induced contraction in an almost parallel fashion to the left; contraction (rabbit aortic rings; single enantiomer, in words): enhanced contraction
CC1=C(C(=O)Nc2ccccc2)C(c2ccccc2Cl)C(C(=O)OCCc2ccccn2)=C(C)N1 (centres unmarked) [YC-170]					inotropic effect in atrium ([6]; isolated guinea pig atrium): positive inotropic effect; contractile tension in atrium ([6]; partially depolarized with a low concentration of potassium): decrease in contractile tension; contraction of aortic strips ([7]; isolated rabbit aortic strips): induced contraction; relaxant effect on aorta ([7]; precontracted by a high concentration of potassium): relaxant effect
